Measured values as given in patent US7687079B2, “Methods of treating ileus” (priority 2002, dated 2010).
Entries after “also recorded” stand apart in the source; their conditions may differ.

Columns and labels:
[1] = system: MPO+ cells infiltrating the muscularis; test: MPO histochemistry, leukocytes infiltrating intestinal muscularis after IM; format: in vivo, mouse; settings: control and IM groups, 24 hr
Method: MPO Histochemistry. Muscularis whole-mounts were prepared from the mid-jejunum collected 24 hr post-operatively. Segments of intestine were immersed in KRB in a Sylgard lined glass dish (Midland, Mich.) and pinned without stretching along the mesenteric border. The length and width of the segments were measured with a caliper. The jejunal segment was then opened along the mesenteric border and stretched to 150% of the length and 250% of the width. The mucosa was removed using fine forceps, and the remaining tissue fixed in 100% denatured ethanol for 30 min. […] Tissues were mounted on glass slides using Gel/Mount™ (Biomedia Corp., Foster City, Calif.), cover-slipped and inspected by light microscopy (Nikon Microphot-FXA, Fryer, Huntley, Ill.) at a magnification of 200×. PMN's were counted in five to six adjacent optical fields centered between the mesenteric and antimesenteric borders.

[2] = system: small intestinal circular muscle; test: in vitro circular muscle contractility (spontaneous and bethanechol-stimulated) after SITx; format: in vivo, rat
Method: To determine whether CO is protective against ileus associated with small bowel transplantation, orthotopic SITx was performed in syngenic Lewis rats. SITx with caval drainage was performed using a previously described procedure. […] The graft was perfused via the aortic segment with 5 ml chilled Ringer's lactate solution, and the intestinal lumen was irrigated with 20 ml of cold saline solution containing 0.5% neomycin-sulfate (Sigma, St. Louis, Mo.). End-to-side anastomoses between the graft aorta and the recipient infrarenal aorta, and between the graft portal vein and recipient vena cava, were performed with 10-0 Novafil™ suture. The cold ischemic time was 1 hour. The entire recipient intestine was removed and the enteric continuity was restored by proximal and distal end-to-end intestinal anastomoses. Recipient animals were given 20 mg/day prophylactic cefamandole nafate for 3 postoperative days. Transplanted recipients were given water 3 hours after surgery, and were fed 24 hours after surgery.
Four groups of animals were examined in this study, two of which received a SITx. Group 1 consisted of unoperated normal rats. Group 2 animals were exposed to CO with no surgery. In Group 3, syngeneic SITx were performed and the recipients kept in room air. Group 4 consisted of SITx recipients that were placed in the CO chamber for 1 hour before surgery and then re-exposed to CO immediately following surgery until sacrificed. In both Groups 3 and 4, normal LEW rats served as donors.
The animals were exposed to CO at a concentration of 250 ppm. Briefly, 1% CO in air was mixed with air (21% oxygen) in a stainless steel mixing cylinder and then directed into a 3.70 ft^3 glass exposure chamber at a flow rate of 12 L/min. A CO analyzer (Interscan, Chatsworth, Calif.) was used to measure CO levels continuously in the chamber. CO concentrations were maintained at 250 ppm at all times. The animals were supplied food and water during the exposures.
The effect of CO treatment on intestinal dysmotility in transplanted grafts was assessed both in vitro and in vivo. […] In vitro circular muscle mechanical activity was measured as previously described (Eskandari et al., Am. J. Physiol. 273(3 Pt 1):G727-34 (1997)). Rats were anesthetized and killed by exsanguination 24 hours post-operatively. A segment of mid-jejunum was pinned in a Sylgaard™ lined dissecting dish containing pre-oxygenated Krebs-Ringer-bicarbonate buffer (KRB; in mM: 137.4 Na^+, 5.9 K^+, 2.5 Ca^2+, 1.2 Mg^2+, 134 Cl^−, 15.5 HCO3^−, 1.2 H2PO4^−, and 11.5 glucose) that was equilibrated with 97% O2/3% CO2. The intestine was opened along the mesenteric border and the mucosa removed by stripping with fine forceps. Full-thickness strips of muscularis (1×6 mm) were cut parallel to the circular muscle layer. Muscle strips were mounted in standard horizontal mechanical organ chambers that were continuously superfused with pre-oxygenated KRB maintained at 37° C. One end of each strip was attached by ligature to a fixed post and the other to an isometric force transducer (WPI, Sarasota, Fla.). Strips were allowed to equilibrate for 1 hour, after which they were incrementally stretched to the length at which maximal spontaneous contraction occurred (Lo). […] Contractile activity was calculated by integrating the area under the trace, normalized by converting the weight and length of the strip to square millimeters of tissue (1.03 mg/mm^2), and reported as g/s/mm^2.

serum IL-6 = serum IL-6 ELISA after SITx; format: in vivo, rat
Method: Serum samples were taken sequentially at 1, 4 and 24 hours after reperfusion and stored at −80° C. until evaluation. Serum cytokine concentrations, including IL-6, IL-10 and TNFα, were determined using rat enzyme-linked immunoassay (ELISA) kits as described by the manufacturer (R & D, Cambridge, Mass.).
FIG. 6 is a set of bar graphs that illustrate the effect of CO on serum IL-6 and nitrate/nitrite concentrations in animals receiving intestinal grafts at one and four hours after reperfusion. […] Serum IL-6 concentrations were determined using a rat enzyme-linked immunoassay (ELISA) kit (R&D, Cambridge, Mass.). The serum nitrite/nitrate levels, the stable end products of NO metabolism, were measured using a commercially available test kit (Cayman, Ann Arbor, Mich.). In this assay system, nitrate is reduced to nitrite using nitrate reductase, and nitrite concentration of the sample was subsequently measured using the Griess reaction. Serum IL-6 and nitrite/nitrate levels in animals subjected SITx and treated with air increased over time.

serum total nitrite = test: Example 3 serum total nitrite; format: in vivo, mouse; settings: IM-CO mice
Method: (§1) Ileus was induced in mice by gentle manipulation of the small intestine. An incision was made to expose the abdominal cavity of the mouse, and bowel manipulation was performed by gentle poking and prodding of the small intestine (see, e.g., Schwarz et al., Gastroenterology 121(6):1354-1357 (2001)). The incision was subsequently closed, and analyses were performed 24 hours later. Mice were exposed to CO by inhalation (250 and 500 ppm) for 1 hour immediately prior to intestinal manipulation and during the entire 24-hour recovery period. Intestinal contractility was assessed in vitro by measuring circular muscle strip contractions in response to bethanechol (0.3-300 μM) and in vivo by determining intestinal transit from the distribution of orally-fed, fluorescein-labeled dextran and calculating geometric center as described in Example 1 above. HO-1 and IL-10 mRNA expression were determined by SYBR green real time RT-PCR from extracts of muscularis extemae, as described in Example 1 above. Release of nitric oxide (NO), a potent inhibitor of smooth muscle contractility, was estimated by measuring serum total nitrite, also described in Example 1 above.

[3] = system: mice with ileus induced by manipulation of the small intestine; test: Example 3 intestinal transit, geometric center after IM; format: in vivo, mouse; settings: IM+CO mice (250 and 500 ppm), 24 hours
Method: as §1

With `[C-]#[O+]` [CO, carbon monoxide] the “magnitude of the leukocyte infiltrate (MPO+ cells)” value [1] was “no effect”, the peak contractile force ([2]; SITx + CO 250 ppm, 100 μM bethanechol) was 3.6±0.7 g/mm^2/s and the Contractile force ([2]; SITx + CO, Table 2) was 3.0 ± 0.4 g/s/mm^2. The spontaneous contractile activity ([2]; transplanted (SITx) rats, CO 250 ppm, 24 hours after reperfusion) was “restored”, the peak contractile force ([2]; unoperated animals treated with CO 250 ppm, bethanechol) was 3.2±0.5 g/mm^2/s and the spontaneous contractile activity ([2]; unoperated control rats, CO 250 ppm for 24 hours) was “no effect”. For the same molecule, the “serum IL-6 level” value (serum IL-6; SITx + CO vs SITx with air) was “significantly decreased; also recorded: significantly lower”, the “Serum IL-6” value (serum IL-6; SITx + CO, 4 hours after reperfusion, Table 2) was 1439 pg/mL and the serum nitrite (serum total nitrite) was 6.0 ± 1.6 µM. It also gave a geometric center [3] of 6.3±0.8.
